Source: ChEMBL document CHEMBL1157566, “Cytotoxic and anti-inflammatory cembranoids from the Dongsha Atoll soft coral Sarcophyton crassocaule” (2010)
Values after ≈ are worked out from the molar mass of the structure shown.

Assays:
Format in all cases: functional
RAW264.7 [1] = experiment: Antiinflammatory activity in mouse RAW264.7 cells assessed as inhibition of LPS-stimulated iNOS protein expression by measuring iNOS protein level at 10 uM by Western blot relative to untreated control
WiDr = experiment: Cytotoxicity against human WiDr cells by MTT assay; details: read-out: ED50 (the source's name)
Daoy = experiment: Cytotoxicity against human DaOY cells by MTT assay; details: read-out: ED50 (the source's name)
MCF7 = experiment: Cytotoxicity against human MCF7 cells by MTT assay; details: read-out: ED50 (the source's name)
HEp-2 = experiment: Cytotoxicity against human Hep2 cells by MTT assay; details: read-out: ED50 (the source's name)
RAW264.7 [2] = experiment: Antiinflammatory activity in mouse RAW264.7 cells assessed as inhibition of LPS-stimulated COX2 protein expression by measuring COX2 protein level at 10 uM by Western blot relative to untreated control; set-up: scale not given: the % may be the effect or the level left

Compound	iNOS protein level relative to control (RAW264.7 [1]) [%]	EC50 (WiDr) [µg/mL]	EC50 (Daoy) [µg/mL]	EC50 (MCF7) [µg/mL]	EC50 (HEp-2) [µg/mL]	Activity (RAW264.7 [2]) [%]
C=C1C(=O)O[C@H]2[C@H]1C[C@@H]1O[C@@]1(C)CC/C=C(\C)CC/C=C(\C)[C@@H]2OC(C)=O	6.2	–	–	–	–	–
CO[C@@]12[C@H](COC(N)=O)C3=C(C(=O)C(C)=C(N)C3=O)N1C[C@@H]1N[C@@H]12 [MITOMYCIN]	–	0.15 (≈ 0.449 µM)	0.14 (≈ 0.419 µM)	0.14 (≈ 0.419 µM)	0.07 (≈ 0.209 µM)	–
C=C1C(=O)O[C@@H]2[C@@H]1C[C@H](O)[C@@]1(C)CC[C@@H](O1)C(=C)CC/C=C(\C)[C@@H]2OC(C)=O [SARCOCRASSOCOLIDE A]	13.7	4.2 (≈ 10.8 µM)	8.8 (≈ 22.5 µM)	4.2 (≈ 10.8 µM)	6.2 (≈ 15.9 µM)	–
C=C1CC/C=C(\C)[C@H](OC(C)=O)[C@@H]2OC(=O)C(=C)[C@H]2C[C@H](O)[C@@]2(C)CC[C@@H]1O2 [SARCOCRASSOCOLIDE B]	13.3	3.2 (≈ 8.2 µM)	5.6 (≈ 14.3 µM)	3.2 (≈ 8.2 µM)	4.5 (≈ 11.5 µM)	–
C=C1C(=O)O[C@H]2C/C(C)=C/CCC(=C)[C@H]3CC[C@@](C)(O3)[C@@H](O)C[C@H]12 [SARCOCRASSOCOLIDE C]	4.6	1.2 (≈ 3.61 µM)	3.2 (≈ 9.63 µM)	2 (≈ 6.02 µM)	2.6 (≈ 7.82 µM)	–
C=C1CC/C=C(\C)C[C@@H]2OC(=O)C(=C)[C@H]2C[C@H](O)[C@@]2(C)CC[C@@H]1O2 [SARCOCRASSOCOLIDE D]	7	1.8 (≈ 5.41 µM)	5.4 (≈ 16.2 µM)	4.1 (≈ 12.3 µM)	4 (≈ 12 µM)	–
C=C1C(=O)O[C@@H]2C/C(C)=C/CC/C(C)=C/CC[C@]3(C)O[C@H]3C[C@@H]12 [SARCOCRASSOLIDE]	1.1	–	–	–	–	3.9
